The results in this text go back to patent US20250282776A1, “Bicyclic TLR7 Agonists and Uses Thereof” (Bristol-Myers Squibb Company, priority 2024, published 2025).

What is called EC50 is the concentration at which the effect is half-maximal. Higher therefore signals weaker potency.

Test [1] concerns the target T1, human TLR8 (hTLR8) (Homo sapiens, UniProt Q9NR97).
T1 construct: expressed in transfected cells
T1 sequence (Q9NR97 27-1041): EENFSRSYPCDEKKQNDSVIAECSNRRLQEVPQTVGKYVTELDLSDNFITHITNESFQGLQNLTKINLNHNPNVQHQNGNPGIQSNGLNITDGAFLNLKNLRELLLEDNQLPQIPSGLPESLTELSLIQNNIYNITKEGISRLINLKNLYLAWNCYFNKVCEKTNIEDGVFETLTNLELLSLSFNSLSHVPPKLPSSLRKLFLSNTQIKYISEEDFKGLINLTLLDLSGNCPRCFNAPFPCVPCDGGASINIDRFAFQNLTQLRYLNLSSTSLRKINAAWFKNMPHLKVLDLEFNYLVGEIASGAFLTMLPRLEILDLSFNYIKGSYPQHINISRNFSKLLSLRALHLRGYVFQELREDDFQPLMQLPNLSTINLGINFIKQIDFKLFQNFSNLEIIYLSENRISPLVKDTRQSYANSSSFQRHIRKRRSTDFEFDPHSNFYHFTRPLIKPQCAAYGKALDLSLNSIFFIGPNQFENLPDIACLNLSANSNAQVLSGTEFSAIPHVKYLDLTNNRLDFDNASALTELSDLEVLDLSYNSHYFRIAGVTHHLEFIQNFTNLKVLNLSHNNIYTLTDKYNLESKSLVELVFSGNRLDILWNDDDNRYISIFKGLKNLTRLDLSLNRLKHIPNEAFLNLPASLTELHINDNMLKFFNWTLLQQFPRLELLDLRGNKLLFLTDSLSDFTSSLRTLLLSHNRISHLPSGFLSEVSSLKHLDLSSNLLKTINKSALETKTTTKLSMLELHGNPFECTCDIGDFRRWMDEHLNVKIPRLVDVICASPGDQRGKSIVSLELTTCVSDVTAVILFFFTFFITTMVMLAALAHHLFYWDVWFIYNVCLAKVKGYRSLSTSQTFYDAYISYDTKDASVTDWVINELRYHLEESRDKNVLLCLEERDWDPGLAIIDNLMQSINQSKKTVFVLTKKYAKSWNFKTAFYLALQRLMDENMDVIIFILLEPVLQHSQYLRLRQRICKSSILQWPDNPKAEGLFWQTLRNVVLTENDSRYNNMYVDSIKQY
Description: Human TLR8 agonist activity assay (measured in a similar manner). In kind it is cell-based. As to conditions: HEK-Blue TLR cells, SEAP reporter, measured in a similar manner to TLR7; some values average of multiple measurements. Summed up:
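Compounds were added to HEK-Blue TLR8 reporter cells, pre-incubated 16-18 h, then treated 18 h at 37° C, 5% CO2. SEAP output was measured with Quanti-Blue (30 min) at OD 620 nm. Some values are averages of multiple measurements.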

Test [2] addresses T2, human TLR7 (hTLR7) (Homo sapiens, UniProt Q9NYK1).
T2 construct: host or cells: HEK-Blue TLR7 cells (engineered human embryonic kidney cells)
T2 sequence (Q9NYK1 27-1049): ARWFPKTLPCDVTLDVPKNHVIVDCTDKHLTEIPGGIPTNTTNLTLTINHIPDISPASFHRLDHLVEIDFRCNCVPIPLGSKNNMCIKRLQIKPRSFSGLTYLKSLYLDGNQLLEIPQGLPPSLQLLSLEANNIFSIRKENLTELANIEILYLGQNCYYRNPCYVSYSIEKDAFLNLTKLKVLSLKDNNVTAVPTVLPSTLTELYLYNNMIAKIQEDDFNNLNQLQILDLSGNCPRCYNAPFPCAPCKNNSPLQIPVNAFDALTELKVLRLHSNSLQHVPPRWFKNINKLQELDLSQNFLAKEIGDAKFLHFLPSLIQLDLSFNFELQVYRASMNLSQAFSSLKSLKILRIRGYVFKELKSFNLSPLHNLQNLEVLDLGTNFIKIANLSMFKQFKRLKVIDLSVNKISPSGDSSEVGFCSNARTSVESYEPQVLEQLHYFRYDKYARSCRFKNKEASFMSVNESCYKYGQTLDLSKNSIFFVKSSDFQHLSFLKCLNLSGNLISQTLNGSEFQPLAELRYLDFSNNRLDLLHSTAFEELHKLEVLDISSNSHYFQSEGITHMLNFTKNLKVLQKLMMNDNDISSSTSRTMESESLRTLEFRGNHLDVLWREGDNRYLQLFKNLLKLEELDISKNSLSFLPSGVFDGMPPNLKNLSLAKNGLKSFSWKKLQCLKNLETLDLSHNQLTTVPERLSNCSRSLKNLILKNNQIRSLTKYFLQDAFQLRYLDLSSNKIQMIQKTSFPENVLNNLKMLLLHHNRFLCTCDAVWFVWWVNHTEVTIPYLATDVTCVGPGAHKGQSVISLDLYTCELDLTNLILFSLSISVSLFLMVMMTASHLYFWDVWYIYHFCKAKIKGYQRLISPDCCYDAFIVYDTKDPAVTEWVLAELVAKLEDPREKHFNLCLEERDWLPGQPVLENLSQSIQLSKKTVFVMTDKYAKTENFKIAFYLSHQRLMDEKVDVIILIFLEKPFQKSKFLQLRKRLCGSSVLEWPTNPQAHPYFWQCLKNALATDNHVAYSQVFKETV
In words: Human TLR7 agonist activity assay (HEK-Blue TLR7 SEAP reporter). The format is cell-based. As to conditions: HEK-Blue TLR7 cells, 18 h incubation, Quanti-Blue, OD 620 nm, some values average of multiple measurements. Summed up:
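HEK-Blue TLR7 cells seeded 16-18 h, then exposed to compound for 18 h at 37 °C, 5% CO2. Secreted SEAP read with Quanti-Blue at OD 620 nm after 30 min. EC50 taken as concentration giving half-maximal response between baseline and maximum; some values averaged over repeats.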

Regarding `CCCCN(CCO)c1nc(N)nc2cn(Cc3c(F)cc(C4CCNCC4)cc3OC)nc12` [Compound 16], the EC50 in test [1] was found to be 2500 nM; in test [2] it was 749 nM.

In the case of `CCCCNCc1ccc(Cn2cc3nc(N)nc(N(CCO)CCCC)c3n2)c(OC)c1` [Compound 12], the EC50 in test [1] was 477 nM; in test [2], 661 nM.

As for `CCCCN(CCO)c1nc(N)nc2cn(Cc3ccc(CN4CC5(CCO5)C4)cc3OC)nc12` [Compound 28], the EC50 was determined as 266 nM in test [1] and 284 nM in test [2].

For `CCCCN(CCO)c1nc(N)nc2cn(Cc3c(F)cc(CN4CC5(COC5)C4)cc3OC)nc12` [Compound 83], the EC50 came out at 2260 nM in test [1] and 511 nM in test [2].

`CCCCN(CCO)c1nc(N)nc2cn(Cc3ccc(CN4CCCNCC4)cc3OC)nc12` [Compound 55]: the EC50 came to 2030 nM in test [1] and 349 nM in test [2].

With `CCCCN(CCO)c1nc(N)nc2cn(Cc3ccc(CN[C@H]4C[C@H](OC)C4)c4oc(C)nc34)nc12` [Compound 141, 2-((5-amino-2-((7-((((1r,3r)-3-methoxycyclobutyl)amino)methyl)-2-methylbenzo[d]oxazol-4-yl)methyl)-2H-pyrazolo[4,3-d]pyrimidin-7-yl)(butyl)amino)ethan-1-ol], the EC50 in test [1] is 421 nM; in test [2] it was 439 nM.

Take `CCCCN(CCO)c1nc(N)nc2cn(Cc3c(F)cc(CN[C@H]4C[C@H](O)C4)cc3F)nc12` [Compound 117]: the EC50 in test [1] worked out at 1970 nM; in test [2], 1190 nM.

Take `CCCCN(CCO)c1nc(N)nc2cn(Cc3c(F)cc(C4CCC(N(C)C5CC6(COC6)C5)CC4)cc3OC)nc12` (stereo not drawn) [Compound 195]: the EC50 is 1750 nM in test [1] and 541 nM in test [2].

With `CCCCN(CCO)c1nc(N)nc2cn(Cc3cccc4c3OCCN4C(=O)CN(C)C)nc12` [Compound 90], the EC50 is 2410 nM in test [1] and 2150 nM in test [2].

Consider `CCCCN(CCO)c1nc(N)nc2cn(Cc3ccc(CNC4CCC4)cc3NC)nc12` [Compound 102], for which the EC50 is 1800 nM in test [1] and 2190 nM in test [2].

For `CCCCN(CCO)c1nc(N)nc2cn(Cc3ccc(CN4CCN(C5CCC5)CC4)c4cccnc34)nc12` [Compound 60], the EC50 is 469 nM in test [1] and 326 nM in test [2].

Take `CCCCN(CCO)c1nc(N)nc2cn(Cc3ccc(CN[C@@H]4CCOC4)cc3OC)nc12` [Compound 85]: the values for the EC50 in test [1] and in test [2] were 1970 nM and 148 nM, respectively.

Turning to `CCCCN(CCO)c1nc(N)nc2cn(Cc3ccc(CNC4CCOCC4)c4scnc34)nc12` [Compound 180, 2-((5-Amino-2-((7-(((tetrahydro-2H-pyran-4-yl)amino)methyl)benzo[d]thiazol-4-yl)methyl)-2H-pyrazolo[4,3-d]pyrimidin-7-yl)(butyl)amino)ethan-1-ol], the values for the EC50 in test [1] and in test [2] were 230 nM and 294 nM, respectively.

Take `CCCCN(CCO)c1nc(N)nc2cn(Cc3c(F)cc(CNC4CCOCC4)cc3F)nc12` [Compound 115]: the EC50 worked out at 1500 nM in test [1] and 108 nM in test [2].

Turning to `CCCCN(CCO)c1nc(N)nc2cn(Cc3ccc(CNC(C)(C)C)c4c3OCCC4)nc12` [Compound 148], the figures for the EC50 in test [1] and in test [2] were 462 nM and 1840 nM, respectively.

For `CCCCN(CCO)c1nc(N)nc2cn(Cc3ccc(CN[C@@H]4CCCN(S(C)(=O)=O)C4)c4cccnc34)nc12` [Compound 200, (R)-2-((5-Amino-2-((5-(((1-(methylsulfonyl)piperidin-3-yl)amino)methyl)quinolin-8-yl)methyl)-2H-pyrazolo[4,3-d]pyrimidin-7-yl)(butyl)amino) ethan-1-ol], the EC50 in test [1] was 879 nM; in test [2], 301 nM.

As for `CCCCN(CCO)c1nc(N)nc2cn(Cc3ncc(CNC(C)(C)C)cc3OC)nc12` [Compound 201], the EC50 in test [1] amounted to 3140 nM; in test [2] it was 1350 nM.

In the case of `CCCCN(CCO)c1nc(N)nc2cn(Cc3ccc(CN4CCN(CCO)CC4)cc3OC)nc12` [Compound 19], the EC50 in test [1] came to 1470 nM; in test [2] it was 696 nM.

For `CCCCN(CCO)c1nc(N)nc2cn(Cc3ccc(CNC4CCOCC4)c4cccnc34)nc12` [Compound 58], the EC50 in test [1] came out at 488 nM; in test [2], 757 nM.

Turning to `CCCCN(CCO)c1nc(N)nc2cn(Cc3cc(OC)c(C4CCN(C(C)C)CC4)cc3OC)nc12` [Compound 110], the EC50 in test [1] is 702 nM; in test [2], 39 nM.

As to `CCCCN(CCO)c1nc(N)nc2cn(Cc3ccc(CN4CC5(CC(O)C5)C4)cc3OC)nc12` [Compound 27], the figures for the EC50 in test [1] and in test [2] were 1950 nM and 1970 nM, respectively.

Regarding `CCCCN(CCO)c1nc(N)nc2cn(Cc3c(F)cc(CNC4(CO)CC4)cc3OC)nc12` [Compound 91], the concentration giving a half-maximal response (EC50) came to 2080 nM in test [1] and 1220 nM in test [2].

Take `CCCCN(CCO)c1nc(N)nc2cn(Cc3c(F)cc(CN[C@H]4CC[C@H](O)CC4)cc3OC)nc12` [Compound 93]: the results for the EC50 in test [1] and in test [2] were 1910 nM and 2580 nM, respectively.

As to `CCCCN(CCO)c1nc(N)nc2cn(Cc3c(F)cc(CNCCOC)cc3OC)nc12` [Compound 73], the concentration for a half-maximal effect (EC50) turned out to be 593 nM in test [1] and 320 nM in test [2].

Regarding `CCCCN(CCO)c1nc(N)nc2cn(Cc3ccc(CNC4CCOCC4)cc3OC)nc12` [Compound 3], the EC50 came to 596 nM in test [1] and 970 nM in test [2].

As for `CCCCN(CCO)c1nc(N)nc2cn(Cc3c(F)cc(C4CCN(C5CCOCC5)CC4)cc3C#N)nc12` [Compound 150], the EC50 worked out at 2100 nM in test [1] and 1130 nM in test [2].

Turning to `CCCCCN(CCO)c1nc(N)nc2cn(Cc3ccc(CN[C@@H]4CCOC4)cc3OC)nc12` [Compound 70], the half-maximal effective concentration (EC50) in test [1] stood at 1060 nM; in test [2], 1050 nM.

Turning to `CCCCN(CCO)c1nc(N)nc2cn(Cc3c(F)cc(CNC4CCOCC4)cc3OC)nc12` [Compound 74], the EC50 stood at 1280 nM in test [1] and 741 nM in test [2].

Regarding `CCCCN(CCO)c1nc(N)nc2cn(Cc3ccc(CCNC4CCOCC4)cc3OC)nc12` [Compound 156], the results for the EC50 in test [1] and in test [2] were 2170 nM and 1550 nM, respectively.

As to `CCCCN(CCO)c1nc(N)nc2cn(Cc3ccc(CN4CC5(C4)CN(C(C)C)C5)cc3OC)nc12` [Compound 30], the figures for the EC50 in test [1] and in test [2] were 1620 nM and 1410 nM, respectively.
